Key:
[1] = Relative stability experiments: non-competitive and competitive interconversion of crystal forms of Compound 1; format: physicochemical; details: for crystal form of the resulting material (pXRD, DSC, TGA, 1H-NMR): non-competitive, single starting form, refluxed in deionized water at about 95° C. for 3 hours
Procedure: The relative stability of various crystal forms of Compound 1 were subjected to non-competitive and competitive interconversion experiments.
In Example 12a, Form A of Compound 1 (0.4 g) prepared according to Preparation Example 5c was refluxed in deionized water (4 mL) at about 95° C. for 3 hours. The slurry was cooled to 25-30° C., filtered, suction dried for 1 hour and dried in a vacuum oven at 70° C. and 8 kPa absolute pressure for 12 hours.
(§1) In Example 12b, Form B of Compound 1 (0.4 g) prepared according to Preparation Example 5f was refluxed in deionized water (4 mL) at about 95° C. for 3 hours. The slurry was cooled to 25-30° C., filtered, suction dried for 1 hour and dried in a vacuum oven at 70° C. and 8 kPa absolute pressure for 12 hours. Analysis by pXRD, DSC, TGA and ^1H-NMR of the resulting material indicated Form A.
as §1, with “12c,” for “12b,”, “D” for “B”, “5g” for “5f”
as §1, with “12d,” for “12b,”, “TS” for “B”, “(1” for “(0.4”, “1” for “5f”, “(10” for “(4”, “65°” for “70°”
as §1, with “12e, Form A (0.6 g) and” for “12b,”, “B (0.6 g)” for “B”, “1” for “1 (0.4 g)”, “Examples 5c and 5f, respectively, were blended as solids and” for “Example 5f was”, “(12” for “(4”, “65°” for “70°”
(§2) In Example 12f, Form B (0.6 g) and Form D (0.6 g) of Compound 1 prepared according to Preparation Examples 5f and 5g, respectively, were blended as solids and refluxed in deionized water (12 mL) at about 95° C. for 3 hours. The slurry was cooled to 25-30° C., filtered, suction dried for 1 hour and dried in a vacuum oven at 65° C. and 8 kPa absolute pressure for 12 hours. Analysis by pXRD, DSC and ^1H-NMR of the resulting material indicated Form A.
as §2, with “12g,” for “12f,”, “A” for “B”, “5c” for “5f”
as §2, with “12h, Form A (0.25 g),” for “12f,”, “(0.25 g), Form D (0.25” for “(0.6”, “TS (0.25” for “D (0.6”, “5c, 5f, 5g,” for “5f”, “1,” for “5g,”, “(10” for “(12”
In Example 12i, Form A (0.25 g), Form B (0.25 g), Form D (0.25 g) and mixed Forms A and B (0.25 g) of Compound 1 prepared according to Preparation Examples 5c, 5f, 5g and 2, respectively, were blended as solids and refluxed in deionized water (10 mL) at about 95° C. for 3 hours. The slurry was cooled to 25-30° C., filtered, suction dried for 1 hour and dried in a vacuum oven at 65° C. and 8 kPa absolute pressure for 12 hours. Analysis by pXRD, DSC and ^1H-NMR of the resulting material indicated Form A. […]

[2] = Stability experiment for polymorph Form A of Compound 1 (stability chamber); format: physicochemical
Procedure: The physical stability of Form A of Compound 1 was determined as follows. Compound 1 prepared according to Preparation Example 3 was analyzed by pXRD, DSC, HPLC and ^1H-NMR and found to be of pure crystal Form A of 99.9% purity (by HPLC peak area at 230 nm detection wavelength). An aliquot of the sample (3.0 g) was placed in a primary polyethylene bag, the primary bag was flushed with nitrogen gas and sealed. The primary polyethylene bag was then placed in a secondary polyethylene bag which was again flushed with nitrogen gas and a silica gel sachet was placed between the inner and the outer bag. The double bagged material was then placed in a triple laminated aluminum pouch and placed in a stability chamber at 40° C. for 30 days. Analysis by HPLC and ^1H-NMR of the resulting material indicated pure Form A of Compound 1 of 99.9% purity (by HPLC peak area at 230 nm).

[3] = Example 12e, competitive: Form A + Form B blended, deionized water, about 95° C., 3 hours
[4] = Example 12g, competitive: Form A + Form D blended, deionized water, about 95° C., 3 hours
[5] = Example 12i, competitive: Forms A, B, D and mixed Forms A and B blended, deionized water, about 95° C., 3 hours
[6] = Example 12j, competitive: Forms A, B, D and mixed Forms A and B blended, methanol, about 55° C., 3 hours
[7] = Example 12k, competitive: Forms A, B and D blended, deionized water, about 55° C., 168 hours
[8] = Example 12h, competitive: Forms A, B, D and TS blended, deionized water, about 95° C., 3 hours
[9] = Example 12f, competitive: Form B + Form D blended, deionized water, about 95° C., 3 hours

Row | Compound | crystal form of the resulting material [1, 3] | crystal form of the resulting material [1, 4] | crystal form of the resulting material [1, 5] | crystal form of the resulting material [1, 6] | crystal form of the resulting material [1, 7] | crystal form of the resulting material [1, 8] | crystal form of the resulting material (pXRD, DSC, TGA, 1H-NMR) [1] | relative thermodynamic stability of the solid forms, in words ([1]; under the conditions studied) | crystal form after storage (pXRD and DSC) ([2]; 40° C. for 30 days) | purity after storage (HPLC peak area at 230 nm) ([2]; 40° C. for 30 days, sealed under nitrogen in double polyethylene bag and aluminum pouch) | physical and chemical stability, in words ([2]; pure solid form) | crystal form of the resulting material [1, 9] | crystal form of the resulting material ([1]; Example 12l: slurry in deionized water stirred at 25° C. for about 168 hours)
1 | COc1ccc(Cl)c(S(=O)(=O)NC(=O)c2cn3cc(C(F)(F)F)cc(Cl)c3n2)c1 [Form A, 8-chloro-N-[(2-chloro-5-methoxyphenyl)sulfonyl]-6-(trifluoromethyl)-imidazo[1,2-a]pyridine-2-carboxamide] | Form A | Form A | Form A | Form A | Form A | Form A | remained unchanged, i.e. Form A | most thermodynamically stable polymorph form | pure polymorph Form A | 99.9% | physically and chemically stable | – | –
2 | COc1ccc(Cl)c(S(=O)(=O)NC(=O)c2cn3cc(C(F)(F)F)cc(Cl)c3n2)c1 [Form B, 8-chloro-N-[(2-chloro-5-methoxyphenyl)sulfonyl]-6-(trifluoromethyl)-imidazo[1,2-a]pyridine-2-carboxamide] | Form A | – | Form A | Form A | Form A | Form A | Form A | – | – | – | – | Form A | –
3 | COc1ccc(Cl)c(S(=O)(=O)NC(=O)c2cn3cc(C(F)(F)F)cc(Cl)c3n2)c1 [Form D, 8-chloro-N-[(2-chloro-5-methoxyphenyl)sulfonyl]-6-(trifluoromethyl)-imidazo[1,2-a]pyridine-2-carboxamide] | – | Form A | Form A | Form A | Form A | Form A | Form A | – | – | – | – | Form A | –
4 | COc1ccc(Cl)c(S(=O)(=O)NC(=O)c2cn3cc(C(F)(F)F)cc(Cl)c3n2)c1 [Form TS, 8-chloro-N-[(2-chloro-5-methoxyphenyl)sulfonyl]-6-(trifluoromethyl)-imidazo[1,2-a]pyridine-2-carboxamide] | – | – | – | – | – | Form A | Form A | – | – | – | – | – | –
5 | COc1ccc(Cl)c(S(=O)(=O)NC(=O)c2cn3cc(C(F)(F)F)cc(Cl)c3n2)c1 [mixed Forms A and B, 8-chloro-N-[(2-chloro-5-methoxyphenyl)sulfonyl]-6-(trifluoromethyl)-imidazo[1,2-a]pyridine-2-carboxamide] | – | – | Form A | Form A | – | – | – | – | – | – | – | – | Form A
